The values below come from patent US6218427A, “Chromene-3-carboxylate derivatives” (Shionogi & Co., Ltd., priority 1996, dated 2001).

Assay [1] deals with T1, endothelin A (ETA) receptor (Rattus norvegicus, UniProt P26684).
T1 construct: smooth muscle A7r5 cells derived from rat aorta; endogenous in cells; host or cells: A7r5 (rat aorta smooth muscle cells)
T1 sequence (P26684 21-426): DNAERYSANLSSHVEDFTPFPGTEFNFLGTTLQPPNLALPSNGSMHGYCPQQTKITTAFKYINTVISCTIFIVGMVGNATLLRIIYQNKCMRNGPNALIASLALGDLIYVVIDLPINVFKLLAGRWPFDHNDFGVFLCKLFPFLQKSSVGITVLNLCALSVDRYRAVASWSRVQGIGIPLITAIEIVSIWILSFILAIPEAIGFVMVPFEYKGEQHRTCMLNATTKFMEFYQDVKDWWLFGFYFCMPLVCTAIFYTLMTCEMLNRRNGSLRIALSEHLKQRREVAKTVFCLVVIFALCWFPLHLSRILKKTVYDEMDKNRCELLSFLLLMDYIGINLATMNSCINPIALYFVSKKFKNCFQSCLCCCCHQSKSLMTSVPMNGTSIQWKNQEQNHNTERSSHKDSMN
The assay can be described thus: Measurement of affinity for endothelin A (ETA) receptor: inhibition of 125I-labeled endothelin-1 binding to A7r5 cells. To be noted: 125I-endothelin-1 8.3 pM, A7r5 cells derived from rat aorta, 37° C., 1 h. The procedure: Experiment 1 Measurement of affinity for endothelin A (ETA) receptor
Affinities for the ETA receptor were measured from the potency for inhibition of binding of ^125 I-labeled endotheline-1 to smooth muscle A7r5 cells derived from rat aorta. In brief, the cells cultured in 48-well plates were washed with buffer, and incubated in 0.3 ml of Hepes buffered Hanks' solution containing labeled endothelin-1 (8.3 pM) and various kinds of protease inhibitors in the presence or absence of the compound of the present invention at 37° C. for 1 h. The incubation was terminated by rapid removal of the incubation medium and the cells were washed with a HEPES buffered Hanks' solution. The radioactivity of ^125 I-labeled endothelin-1 bound to the cells was determined with a gamma-counter. The specific binding was calculated by subtracting the non-specific binding which was determined in the presence of 10^-7 M non radioactive endothelin-1 from the total binding.

The target in assay [2] is T2, endothelin B (ETB) receptor (Sus scrofa, UniProt P35463).
T2 construct: expressed in transfected cells; host or cells: COS-7
T2 sequence (P35463 27-443): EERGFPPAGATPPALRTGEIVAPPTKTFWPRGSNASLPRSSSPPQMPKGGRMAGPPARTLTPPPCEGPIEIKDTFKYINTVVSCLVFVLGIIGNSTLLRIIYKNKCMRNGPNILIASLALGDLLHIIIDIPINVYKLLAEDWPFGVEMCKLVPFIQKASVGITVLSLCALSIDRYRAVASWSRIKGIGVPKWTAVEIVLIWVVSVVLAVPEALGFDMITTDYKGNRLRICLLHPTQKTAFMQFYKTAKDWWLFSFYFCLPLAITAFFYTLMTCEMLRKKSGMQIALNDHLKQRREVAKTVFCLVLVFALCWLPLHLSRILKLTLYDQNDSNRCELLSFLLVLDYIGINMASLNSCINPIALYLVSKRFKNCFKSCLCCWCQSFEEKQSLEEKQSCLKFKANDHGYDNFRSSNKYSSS
Kind of assay: Measurement of affinity for endothelin B (ETB) receptor: inhibition of 125I-labeled endothelin-3 binding to COS-7 cells expressing pig ETB receptor. To be noted: 125I-endothelin-3 25 pM, 37° C., 1 h. The procedure: Experiment 2 Measurement of affinity for endothelin B (ETB) receptor
Affinities for the ETB receptor were measured from the potency for inhibiting ^125 I-labeled endothelin-3 binding to COS-7 cells expressing the pig endothelin ETB receptor. In brief, a plasmid vector to which the pig endothelin ETB receptor gene was inserted was transfected to COS-7 cells by the lipofectin method. After the cells were washed with buffer, 10^3 -10^4 cells were dispersed in HEPES buffered Hanks' solution (0.1 ml) containing 25 pM of 125I labeled endothelin-3 and various kinds of protease inhibitors and incubated in the presence or absence of the compound of the present invention at 37° C. for 1 h. After completion of the reaction, the radioactivity bound was trapped by a glass fiber filter and measured with a gamma counter. Specific binding was calculated by subtracting the non-specific binding measured in the presence of 10^-7 M non-radioactive endothelin-3 from the total binding.

As a reminder, the IC50 is the point on the concentration scale where inhibition reaches its midpoint.

Molecules are shown by their SMILES.

Regarding `CCCOC1=C(C(=O)O)C(c2ccc3c(c2)OCO3)Oc2ccc(OC(C)C)cc21` (centres unmarked) [Compound I-56], the results for the IC50 in assay [1] and in assay [2] were 1.5 nM and 1300 nM, respectively.
For `CCCCOC1=C(C(=O)O)C(c2ccc3c(c2)OCO3)Oc2ccc(OC(C)C)cc21` (centres unmarked) [Compound I-57], in that order: 0.41 nM and 780 nM.
`CCCCCOC1=C(C(=O)O)C(c2ccc3c(c2)OCO3)Oc2ccc(OC(C)C)cc21` (centres unmarked) [Compound I-58]: the IC50 in assay [1] stood at 0.48 nM; in assay [2], 150 nM.
Turning to `CC(C)OC1=C(C(=O)O)C(c2ccc3c(c2)OCO3)Oc2ccc(OC(C)C)cc21` (centres unmarked) [Compound I-59], the concentration for half-maximal inhibition (IC50) in assay [1] is 0.81 nM; in assay [2], 730 nM.
The corresponding values for `C=CCCCOC1=C(C(=O)O)C(c2ccc3c(c2)OCO3)Oc2ccc(OC(C)C)cc21` (centres unmarked) [Compound I-65, 2-(Benzo[1,3]dioxol-5-yl)-6-isopropoxy-4-(4-pentenyloxy-1-yl)-2H-chromen-3-carboxylic acid] are 0.38 nM and 130 nM.
For `CCCCCCOC1=C(C(=O)O)C(c2ccc3c(c2)OCO3)Oc2ccc(OC(C)C)cc21` (centres unmarked) [Compound I-67], in that order: 0.67 nM and 78 nM.
The corresponding values for `CC(C)Oc1ccc2c(c1)C(OCCCCCO)=C(C(=O)O)C(c1ccc3c(c1)OCO3)O2` (centres unmarked) [Compound I-68] are 0.95 nM and 880 nM.
Regarding `COC(CCCOC1=C(C(=O)O)C(c2ccc3c(c2)OCO3)Oc2ccc(OC(C)C)cc21)OC` (centres unmarked) [Compound I-70], the IC50 in assay [1] was 1.2 nM; in assay [2], 270 nM.
For `COc1ccc(OC2=C(C(=O)O)C(c3ccc4c(c3)OCO4)Oc3ccc(OC(C)C)cc32)cc1` (centres unmarked) [Compound I-74, 2-(Benzo[1,3]dioxol-5-yl)-6-isopropoxy-4-(4-methoxy-phenoxy)-2H-chromen-3-carboxylic acid], in that order: 0.21 nM and 58 nM.
The corresponding values for `CCCCC1=C(C(=O)O)C(c2ccc3c(c2)OCO3)Oc2ccc(OC(C)C)cc21` (centres unmarked) [Compound I-76] are 0.73 nM and 610 nM.
The corresponding values for `CCCCCC1=C(C(=O)O)C(c2ccc3c(c2)OCO3)Oc2ccc(OC(C)C)cc21` (centres unmarked) [Compound I-77, 2-(Benzo[1,3]dioxol-5-yl)-6-isopropoxy-4-pentyl-2H-chromen-3-carboxylic acid] are 0.32 nM and 150 nM.
As to `CC(C)Oc1ccc2c(c1)C(C(C)C)=C(C(=O)O)C(c1ccc3c(c1)OCO3)O2` (centres unmarked) [Compound I-78], the half-inhibitory concentration (IC50) is 0.63 nM in assay [1] and 2500 nM in assay [2].
The corresponding values for `CC(C)Oc1ccc2c(c1)C(C1CCCC1)=C(C(=O)O)C(c1ccc3c(c1)OCO3)O2` (centres unmarked) [Compound I-79, 2-(Benzo[1,3]dioxol-5-yl)-4-cyclopentyl-6-isopropoxy-2H-chromen-3-carboxylic acid] are 0.53 nM and 350 nM.
The corresponding values for `Cc1ccc(C2=C(C(=O)O)C(c3ccc4c(c3)OCO4)Oc3ccc(OC(C)C)cc32)s1` (centres unmarked) [Compound I-80, 2-(Benzo[1,3]dioxol-5-yl)-6-isopropoxy-4-(5-methyl-thiophen-2-yl)-2H-chromen-3-carboxylic acid] are 1 nM and 1800 nM.
As to `COc1ccc(CC2=C(C(=O)O)C(c3ccc4c(c3)OCO4)Oc3ccc(OC(C)C)cc32)cc1` (centres unmarked) [Compound I-81, 2-(Benzo[1,3]dioxol-5-yl)-6-isopropoxy-4-(4-methoxy-benzyl)-2H-chromen-3-carboxylic acid], the IC50 in assay [1] is 0.5 nM; in assay [2] it was 85 nM.
In the case of `CCCCCCC1=C(C(=O)O)C(c2ccc3c(c2)OCO3)Oc2ccc(OC(C)C)cc21` (centres unmarked) [Compound I-82], the IC50 in assay [1] stood at 0.62 nM; in assay [2] it was 69 nM.
For `CC(C)CCC1=C(C(=O)O)C(c2ccc3c(c2)OCO3)Oc2ccc(OC(C)C)cc21` (centres unmarked) [Compound I-83], in that order: 1.9 nM and 480 nM.
The corresponding values for `COCCCC1=C(C(=O)O)C(c2ccc3c(c2)OCO3)Oc2ccc(OC(C)C)cc21` (centres unmarked) [Compound I-84] are 1.8 nM and 710 nM.
The corresponding values for `CC(C)Oc1ccc2c(c1)C(CC1CCCCC1)=C(C(=O)O)C(c1ccc3c(c1)OCO3)O2` (centres unmarked) [Compound I-85] are 0.58 nM and 46 nM.
For the compound `C=CCCC1=C(C(=O)O)C(c2ccc3c(c2)OCO3)Oc2ccc(OC(C)C)cc21` (centres unmarked) [Compound I-86], the results for the IC50 in assay [1] and in assay [2] were 2.7 nM and 950 nM, respectively.
The corresponding values for `CC(C)Oc1ccc2c(c1)C(CCCCO)=C(C(=O)O)C(c1ccc3c(c1)OCO3)O2` (centres unmarked) [Compound I-87] are 2.3 nM and 1800 nM.
For `CCCCSC1=C(C(=O)O)C(c2ccc3c(c2)OCO3)Oc2ccc(OC(C)C)cc21` (centres unmarked) [Compound I-89, 2-(Benzo[1,3]dioxol-5-yl)-4-butylsulfanyl-6-isopropoxy-2H-chromen-3-carboxylic acid], in that order: 0.27 nM and 100 nM.
